Test results: US8445636B2, “Antimicrobial and anticancer lipopeptides” (Yeda Research & Development Co. Ltd., priority 2003, dated 2013)
Converted amounts (≈) assume the structure as drawn. Where two headings read alike, the source gives them in different places. Non-standard residues stand in square brackets, D forms with d. Residues, ends and D or L forms follow the SMILES beside them. *: point of attachment. Palmitoyl = CCCCCCCCCCCCCCCC(=O)*; Myristoyl = CCCCCCCCCCCCCC(=O)*

What was measured:
Assay type in all cases: cell-based
[1] = system: M. laleus; settings: Table 3, short lipopeptides; pH 7.4
In short: (§1)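 MIC = lowest concentration with 100% growth inhibition, judged from A600 after 18-20 h incubation at 37° C. Bacteria at 1×10^6 CFU/ml in LB (pH 7.4 unless pH 5.5 stated) combined with equal volume of serially 2-fold diluted lipopeptide.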

[2] = system: Pseudomonas aeruginosa ATCC 27853
In short: as §1

[3] = system: Staphylococcus aureus ATCC 6538P
In short: as §1

[4] = system: Candida albicans ATCC 10231; assay: microbe, parasite or virus in culture; settings: ATCC 10231, pH 7.4
In short: (§2)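 In this assay, each strain, prepared at 1×10^4 CFU/ml before mixing, met serial twofold peptide dilutions in RPMI 1640 buffered with 0.165 M MOPS. Unless noted, pH was 7.4; a pH 5.5 condition was also run. After 24-48 h incubation (35 °C, agitated), wells were scored at 620 nm for total inhibition.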

[5] = system: Cryptococcus neoformans ATCC MYA-422; assay: microbe, parasite or virus in culture; settings: ATCC MYA-422, pH 7.4; read-out: Minimal Inhibitory Concentration, Cyrptococcus neoformans (ATCC MYA-422)
[6] = system: Aspergillus fumigatus ATCC 26430; assay: microbe, parasite or virus in culture; settings: ATCC 26430, pH 7.4
[7] = system: E. coli D21
[8] = system: Acinetobacter baumannii ATCC 19606
In short: as §1

[9] = system: Escherichia coli ATCC 25922
In short: as §1

[10] = system: Enterococcus faecalis ATCC 29212; settings: ATCC 29212, pH 7.4
In short: as §1

[11] = system: Enterobacter cloacae ATCC 49141; settings: ATCC 49141, pH 7.4
In short: as §1

[12] = system: vancomycin-resistant Enterococcus faecium (VRE) ATCC 700221; settings: ATCC 700221, pH 7.4
In short: as §1

[13] = system: methicilin-resistant Staphylococcus aureus (MRSA) ATCC 700698; settings: ATCC 700698, pH 7.4
In short: as §1

[14] = system: Cryptococcus neoformans ATCC 66031; assay: microbe, parasite or virus in culture; settings: ATCC 66031, pH 7.4
In short: as §2

[15] = Table 3, short lipopeptides, pH 7.4

CCCCCCCCCCCCCCCC(=O)N[C@@H](CCCCN)C(=O)NCC(=O)NCC(=O)N[C@H](CCCCN)C(N)=O [PA-KGGK, Palmitoyl-Lys-Gly-Gly-D-Lys-NH2] (Palmitoyl-KGG[dK]-NH2)
Minimal Inhibitory Concentration, M. laleus [1]: 3.12 µM
Minimal Inhibitory Concentration, P. aeruginosa ATCC 27853 ([2]; ATCC 27853, pH 7.4): 12.5 µM
Minimal Inhibitory Concentration, S. aureus ATCC 6538P ([3]; ATCC 6538, pH 7.4): 50 µM
MIC ([4]; read-out: Minimal Inhibitory Concentration, Candida Albicans (ATCC 10231)): 12.5 µM (≈ 7.82 µg/mL)
MIC [5]: 1.56 µM (≈ 0.976 µg/mL)
MIC ([6]; read-out: Minimal Inhibitory Concentration, Aspergillus Fomigatus (ATCC 26430)): 6.25 µM (≈ 3.91 µg/mL)
Minimal Inhibitory Concentration, E. coli-D21 ([7]; D21, pH 7.4): 25 µM

Gentamycin [reference compound]
Minimal Inhibitory Concentration, M. laleus [1]: 0.78 µM
Minimal Inhibitory Concentration, A. baumannii ATCC 19606 [8, 15]: 3.12 µM
Minimal inhibitory concentrations, A. baumannii ATCC 19606 ([8]; Table 6, pH 7.4): 12.5 µM
Minimal inhibitory concentrations, A. baumannii ATCC 19606 ([8]; Table 7, pH 5.5): 12.5 µM
Minimal inhibitory concentrations, E. Coli ATCC 25922 ([9]; Table 6, pH 7.4): 6.25 µM
Minimal inhibitory concentrations, E. Coli ATCC 25922 ([9]; Table 7, pH 5.5): 12.5 µM
Minimal Inhibitory Concentration, P. aeruginosa ATCC 27853 [2, 15]: 0.78 µM
Minimal inhibitory concentrations, P. Aeruginosa ATCC 27853 ([2]; Table 6, pH 7.4): 12.5 µM
Minimal inhibitory concentrations, P. Aeruginosa ATCC 27853 ([2]; Table 7, pH 5.5): 12.5 µM
Minimal Inhibitory Concentration, S. aureus ATCC 6538P [3, 15]: 6.25 µM
Minimal inhibitory concentrations, S. aureus II ATCC 6538P ([3]; Table 6, pH 7.4): 12.5 µM
Minimal inhibitory concentrations, S. aureus II ATCC 6538P ([3]; Table 7, pH 5.5): 25 µM
Minimal Inhibitory Concentration, E. coli-D21 [7, 15]: 1.56 µM
Minimal inhibitory concentrations, E. Coli D21 ([7]; Table 6, pH 7.4): 12.5 µM
Minimal inhibitory concentrations, E. Coli D21 ([7]; Table 7, pH 5.5): 12.5 µM

CCCCCCCCCCCCCC(=O)N[C@@H](CCCCN)C(=O)NCC(=O)NCC(=O)NCC(=O)N[C@@H](CCCCN)C(=O)NCC(=O)NCC(=O)NCC(=O)N[C@@H](CCCCN)C(=O)NCC(=O)NCC(=O)N[C@@H](CCCCN)C(N)=O [lipopeptide 3, (CH3—(CH2)12—CO—)-Lys-Gly-Gly-Gly-Lys-Gly-Gly-Gly-Lys-Gly-Gly-Lys-NH2] (Myristoyl-KGGGKGGGKGGK-NH2)
Minimal Inhibitory Concentration, E. faecalis [10]: 6.25 µM
Minimal Inhibitory Concentration, A. Baumaannii ([8]; ATCC 19606, pH 7.4): 12.5 µM
Minimal Inhibitory Concentration, E. coli ([9]; ATCC 25922, pH 7.4): 6.25 µM
Minimal Inhibitory Concentration, P. Aeruginosa ([2]; ATCC 27853, pH 7.4): 6.25 µM
Minimal Inhibitory Concentration, E. cloacae [11]: 6.25 µM
Minimal Inhibitory Concentration, S. aureus ([3]; ATCC 6538, pH 7.4): 6.25 µM
Minimal Inhibitory Concentration, E. faecium (VRE) [12]: 12.5 µM
Minimal Inhibitory Concentration, S. aureus (MRSA) [13]: 6.25 µM
Minimal Inhibitory Concentration, C. neoformans ATCC 66031 [14]: 3.125 µM
Minimal Inhibitory Concentration, C. albicans ATCC 10231 [4]: 3.125 µM
Minimal Inhibitory Concentration, A. fumigatus ATCC 26430 [6]: 6.25 µM
